{"source": "patent US10633669B2", "about": "“Herbicide-resistant protein, encoding gene and use thereof” (BEIJING DABEINONG TECHNOLOGY GROUP CO., LTD., priority 2015, dated 2020)", "key": {"[1]": {"system": "wild-type Arabidopsis plants", "experiment": "Herbicide resistance effect test of wild-type Arabidopsis (spray)", "format": "in vivo, Arabidopsis thaliana", "conditions": "genotype Wild, 560 g ae/ha", "excerpt": "(§1) 24DT11 gene was used to transform Arabidopsis for the first time. At first, T1 transformants were selected from the background of un-transformed seeds, using glufosinate-ammonium selection scheme. About 20000 T1 seeds are screened among which 282 strains of T1 generation positive transformants (PAT gene) were identified, i.e. the transformation efficiency was about 1.4%. Herbicide resistance effect tests to 2,4-D dimethyl ammonium salt and agroxone of Arabidopsis T1 plants transformed with 24DT11 nucleotide sequence, control nucleotide sequence respectively and wild-type Arabidopsis plants were performed after 18 days of planting.\n(§2) Arabidopsis T1 plants transformed with 24DT11 nucleotide sequence, control nucleotide sequence respectively and wild-type Arabidopsis plants were sprayed with 2,4-D dimethyl ammonium salt (560 g ae/ha, 1-fold concentration in field), agroxone (560 g ae/ha, 1-fold concentration in field) and blank solvent (water). Resistance conditions of the plants were counted 7 days and 14 days after spraying. Plants with growth conditions consistent with blank solvent (water) 7 days after spaying were classified as highly resistant plants; Plants with curly rosette leaves 7 days after spaying were classified as moderately resistant plants; Plants incapable of bolting 14 days after spaying were classified as low-resistant plants and the dead plants 14 days after spaying were classified as non-resistant plants. Because each Arabidopsis T1 plant is an independent transformation event, significant differences of individual T1 responses can be expected under a given dose."}, "[2]": {"system": "wild type soybean plants (CK1)", "experiment": "Herbicide-resistance effect of wild type soybean (spray, damage degree)", "format": "in vivo", "conditions": "wild-type soybean strain CK1, 2240 g ae/ha", "procedure": "(§3) Herbicide resistance effects tests to 2,4-D dimethyl ammonium salt and agroxone of soybean plants containing 24DT11 nucleotide sequence and control nucleotide sequence respectively and wild type soybean plants (stages V3-V4) were performed respectively.\n(§4) Soybean plants containing 24DT11 nucleotide sequence, control nucleotide sequence and wild type soybean plants were taken and spayed with 2,4-D dimethyl ammonium salt (2240 g ae/ha, four-folds concentration in field), agroxone (2240 g ae/ha, four-folds concentration in field) and blank solvent (water). Take statistics of the damage degree of each plant caused by herbicides according to the curling degree of leaves and the damage degree of growing point six hours ([…]), two days (2DAT), seven days (7DAT) and 14 days (14DAT) after spraying respectively: if leaves are flat like wild-type leaves and the growing point is intact, the damage degree is 0%; if leaves curl up and wilt and the growing point is died, the damage degree is 100%. There are three strains contained a transferred 24DT11 nucleotide sequence (S1, S2 and S3), two strains contained a transferred control sequence (S4 and S5) and one wild-type strain (CK1) in total; select 10˜15 plants from each strain for testing."}, "[3]": {"system": "Corn plants containing control nucleotide sequence (S9 and S10)", "experiment": "Herbicide-resistance effect test of corn plants with control sequence (spray, prop root development)", "format": "in vivo", "conditions": "8960 g ae/ha, 21 days after spraying", "procedure": "(§5) Herbicide resistance effects tests to 2,4-D dimethyl ammonium salt and agroxone of corn plants containing 24DT11 nucleotide sequence, control nucleotide sequence respectively and wild type corn plants (stages V3-V4) were performed respectively.\n(§6) Corn plants containing 24DT11 nucleotide sequence, control nucleotide sequence respectively and wild type corn plants were taken and spayed with 2,4-D dimethyl ammonium salt (8960 g ae/ha, 16-folds concentration in field), agroxone (8960 g ae/ha, 16-folds concentration in field) and blank solvent (water) respectively. Prop root development was counted 21 days after spaying. Three strains (S6, S7 and S8) of corn plants transformed with 24DT11 nucleotide sequence, two strains (S9 and S10) of corn plants transformed with control nucleotide sequence and 1 strain of wild type (CK2) corn were selected and 10-15 plants from each stain were tested."}, "[4]": {"system": "Arabidopsis T1 plants transformed with control nucleotide sequence", "experiment": "Herbicide resistance effect test of Arabidopsis T1 plants with control sequence (spray)", "format": "in vivo, Arabidopsis thaliana", "conditions": "genotype Control, 560 g ae/ha", "excerpt": "as §1, §2"}, "[5]": {"system": "Corn plants containing 24DT11 nucleotide sequence (S6, S7 and S8)", "experiment": "Herbicide-resistance effect test of transgenic corn plants (spray, prop root development)", "format": "in vivo", "conditions": "21 days after spraying", "procedure": "as §5, §6"}, "[6]": {"system": "Soybean plants containing 24DT11 nucleotide sequence (S1, S2 and S3)", "experiment": "Herbicide-resistance effect of transgenic soybean plants (spray, damage degree)", "format": "in vivo", "conditions": "for Average damage % 6HAT: 6 hours after spraying; for Average damage % 2DAT: 2 days after spraying; for Average damage % 7DAT: 7 days after spraying; for Average damage % 14DAT: 14 days after spraying", "procedure": "as §3, §4"}, "[7]": {"system": "Arabidopsis T1 plants transformed with 24DT11 nucleotide sequence", "experiment": "Herbicide resistance effect test of transgenic Arabidopsis T1 plants (spray)", "format": "in vivo, Arabidopsis thaliana", "conditions": "genotype 24DT11", "excerpt": "as §1, §2"}, "[8]": {"system": "wild type corn plants (CK2)", "experiment": "Herbicide-resistance effect test of wild type corn (spray, prop root development)", "format": "in vivo", "conditions": "wild type corn strain CK2; 8960 g ae/ha; 21 days after spraying", "procedure": "as §5, §6"}, "[9]": {"system": "Soybean plants containing control nucleotide sequence (S4 and S5)", "experiment": "Herbicide-resistance effect of soybean plants with control sequence (spray, damage degree)", "format": "in vivo", "conditions": "2240 g ae/ha; for Average damage % 6HAT: 6 hours after spraying; for Average damage % 2DAT: 2 days after spraying; for Average damage % 7DAT: 7 days after spraying; for Average damage % 14DAT: 14 days after spraying", "procedure": "as §3, §4"}, "[10]": {"conditions": "curly rosette leaves 7 days after spraying"}, "[11]": {"conditions": "growth consistent with blank solvent 7 days after spraying"}, "[12]": {"conditions": "incapable of bolting 14 days after spraying"}, "[13]": {"conditions": "corn strain S9 (control sequence)"}, "[14]": {"conditions": "corn strain S10 (control sequence)"}, "[15]": {"conditions": "corn strain S6 (24DT11), 8960 g ae/ha"}, "[16]": {"conditions": "corn strain S7 (24DT11), 8960 g ae/ha"}, "[17]": {"conditions": "corn strain S8 (24DT11), 8960 g ae/ha"}, "[18]": {"conditions": "soybean strain S1 (24DT11), 2240 g ae/ha"}, "[19]": {"conditions": "soybean strain S2 (24DT11), 2240 g ae/ha"}, "[20]": {"conditions": "soybean strain S3 (24DT11), 2240 g ae/ha"}, "[21]": {"conditions": "soybean strain S4 (control sequence)"}, "[22]": {"conditions": "soybean strain S5 (control sequence)"}}, "data": [{"smiles": "Cc1cc(Cl)ccc1OCC(=O)O", "note": "[agroxone]", "values": [{"measurement": "Moderate resistant (number of plants)", "setting": "[1]; [10]", "value": 0}, {"measurement": "Non-resistant (number of plants)", "setting": "[1]; dead 14 days after spraying", "value": 32}, {"measurement": "High resistant (number of plants)", "setting": "[1]; [11]", "value": 0}, {"measurement": "Low resistant (number of plants)", "setting": "[1]; [12]", "value": 0}, {"measurement": "Average damage % 6HAT", "setting": "[2]; 6 hours after spraying", "value": 34, "unit": "%"}, {"measurement": "Average damage % 2DAT", "setting": "[2]; 2 days after spraying", "value": 61, "unit": "%"}, {"measurement": "Average damage % 7DAT", "setting": "[2]; 7 days after spraying", "value": 82, "unit": "%"}, {"measurement": "Average damage % 14DAT", "setting": "[2]; 14 days after spraying", "value": 100, "unit": "%"}, {"measurement": "Abnormal development of brace roots (number of plants)", "setting": "[3]; [13]", "value": 14}, {"measurement": "Normal development of brace roots (number of plants)", "setting": "[3]; [13]", "value": 0}, {"measurement": "Proportion of normal development of brace roots", "setting": "[3]; [13]", "value": 0, "unit": "%"}, {"measurement": "Abnormal development of brace roots (number of plants)", "setting": "[3]; [14]", "value": 12}, {"measurement": "Normal development of brace roots (number of plants)", "setting": "[3]; [14]", "value": 0}, {"measurement": "Proportion of normal development of brace roots", "setting": "[3]; [14]", "value": 0, "unit": "%"}, {"measurement": "Moderate resistant (number of plants)", "setting": "[4]; [10]", "value": 0}, {"measurement": "Non-resistant (number of plants)", "setting": "[4]; dead 14 days after spraying", "value": 32}, {"measurement": "High resistant (number of plants)", "setting": "[4]; [11]", "value": 0}, {"measurement": "Low resistant (number of plants)", "setting": "[4]; [12]", "value": 0}, {"measurement": "Normal development of brace roots (number of plants)", "setting": "[5]; corn strain S6 (24DT11), 8960 g ae/ha (16-fold field)", "value": 11}, {"measurement": "Abnormal development of brace roots (number of plants)", "setting": "[5]; [15]", "value": 0}, {"measurement": "Proportion of normal development of brace roots", "setting": "[5]; [15]", "value": 100.00, "unit": "%"}, {"measurement": "Abnormal development of brace roots (number of plants)", "setting": "[5]; [16]", "value": 0}, {"measurement": "Normal development of brace roots (number of plants)", "setting": "[5]; [16]", "value": 11}, {"measurement": "Proportion of normal development of brace roots", "setting": "[5]; [16]", "value": 100.00, "unit": "%"}, {"measurement": "Abnormal development of brace roots (number of plants)", "setting": "[5]; [17]", "value": 0}, {"measurement": "Normal development of brace roots (number of plants)", "setting": "[5]; [17]", "value": 12}, {"measurement": "Proportion of normal development of brace roots", "setting": "[5]; [17]", "value": 100.00, "unit": "%"}, {"measurement": "Average damage % 6HAT", "setting": "[6]; soybean strain S1 (24DT11), 2240 g ae/ha (4-fold field)", "value": 12, "unit": "%"}, {"measurement": "Average damage % 2DAT", "setting": "[6]; [18]", "value": 7, "unit": "%"}, {"measurement": "Average damage % 7DAT", "setting": "[6]; [18]", "value": 0, "unit": "%"}, {"measurement": "Average damage % 14DAT", "setting": "[6]; [18]", "value": 0, "unit": "%"}, {"measurement": "Average damage % 6HAT", "setting": "[6]; [19]", "value": 9, "unit": "%"}, {"measurement": "Average damage % 2DAT", "setting": "[6]; [19]", "value": 5, "unit": "%"}, {"measurement": "Average damage % 7DAT", "setting": "[6]; [19]", "value": 0, "unit": "%"}, {"measurement": "Average damage % 14DAT", "setting": "[6]; [19]", "value": 0, "unit": "%"}, {"measurement": "Average damage % 6HAT", "setting": "[6]; [20]", "value": 19, "unit": "%"}, {"measurement": "Average damage % 2DAT", "setting": "[6]; [20]", "value": 12, "unit": "%"}, {"measurement": "Average damage % 7DAT", "setting": "[6]; [20]", "value": 7, "unit": "%"}, {"measurement": "Average damage % 14DAT", "setting": "[6]; [20]", "value": 4, "unit": "%"}, {"measurement": "High resistant (number of plants)", "setting": "[7]; 560 g ae/ha (1-fold field concentration), growth consistent with blank solvent 7 days after spraying", "value": 22}, {"measurement": "Moderate resistant (number of plants)", "setting": "[7]; 560 g ae/ha, curly rosette leaves 7 days after spraying", "value": 4}, {"measurement": "Non-resistant (number of plants)", "setting": "[7]; 560 g ae/ha, dead 14 days after spraying", "value": 3}, {"measurement": "Low resistant (number of plants)", "setting": "[7]; 560 g ae/ha, incapable of bolting 14 days after spraying", "value": 2}, {"measurement": "Abnormal development of brace roots (number of plants)", "setting": "[8]", "value": 15}, {"measurement": "Normal development of brace roots (number of plants)", "setting": "[8]", "value": 0}, {"measurement": "Proportion of normal development of brace roots", "setting": "[8]", "value": 0, "unit": "%"}, {"measurement": "Average damage % 6HAT", "setting": "[9]; [21]", "value": 38, "unit": "%"}, {"measurement": "Average damage % 2DAT", "setting": "[9]; [21]", "value": 69, "unit": "%"}, {"measurement": "Average damage % 7DAT", "setting": "[9]; [21]", "value": 87, "unit": "%"}, {"measurement": "Average damage % 14DAT", "setting": "[9]; [21]", "value": 100, "unit": "%"}, {"measurement": "Average damage % 6HAT", "setting": "[9]; [22]", "value": 47, "unit": "%"}, {"measurement": "Average damage % 2DAT", "setting": "[9]; [22]", "value": 74, "unit": "%"}, {"measurement": "Average damage % 7DAT", "setting": "[9]; [22]", "value": 92, "unit": "%"}, {"measurement": "Average damage % 14DAT", "setting": "[9]; [22]", "value": 100, "unit": "%"}]}]}
